Assay results as given in US20110021621A1, “Drug for treating circulatory insufficiency” (ACTIVUS PHARMA CO., LTD., priority 2005, published 2011).
Where a name gives a salt, the structure may show the parent alone. Read-outs that look alike come from different tables or passages of the source.

Assays:
[1] = test system: bleeding time in male SD rats; experiment: Effect on bleeding time in rats (tail cutting); conditions: 30 mg/kg oral, max observation 60 min
Method: (§1) 5-week-old male SD rats (body weight is 138 to 152 g), 6 rats per one group, were used. […] 50 minutes after the administration, 50 mg/kg of pentobarbital sodium was intraperitoneally injected into the rat.
(§2) 10 minutes later, the tail was cut off at a position of 2 mm from the tip using a surgical blade, and was immediately immersed into a glass container (Magnus bath) filled with physiological saline maintained at approximately 37° C. to observe until the rat stopped bleeding.
(§3) The bleeding time was taken as the time from the tail cutting to the cessation of bleeding. The tail was marked at a position of 5 cm from the tip in advance, and was immersed in the physiological saline in the glass container at the depth of 5 cm from the surface. The maximum observation time was defined as 60 minutes after the tail cutting.

[2] = test system: circulatory insufficiency model of rats induced by injection of lauric-acid into their femoral artery; experiment: Circulatory insufficiency model induced by lauric-acid in rats (lesion index); type: in vivo, rat; design: key: summed toe lesion grades, +5 if heel reached; max 25 points; conditions: male Wistar rats, average, max 25 points
Method: We performed this test in order to evaluate the pharmacological effect of the compounds of the present invention using a circulatory insufficiency model of rats induced by injection of lauric-acid into their femoral artery.
13-week-old male Wistar rats (body weight is 280 to 316 g), 8 rats per one group, were used. The rats were held in a supine position under anesthesia due to administration of 40 mg/kg of sodium pentobarbital by intraperitoneal injection. Then, the right femoral area was incised, thereby injecting 0.15 mL of 10 mg/mL lauric-acid solution into the femoral artery in order to induce lower limb gangrene caused by the peripheral vascular disorder. A few drops of instant adhesive (Aron-alpha; registered trademark) were used to stop bleeding, followed by topical application of antibiotics (potassium penicillin G solution) to prevent infection, and the incision site was then sutured.
The suspension was administered, by means of multiple oral dosing, 1 hour prior to and 3 hours after injection of lauric-acid and twice daily (at 10:00 and 17:00) for the following 9 days, at the dose of 30 mg/kg for each compound. […] The suspension was administered orally 3 hours prior to injection of lauric-acid at the dose of 300 mg/kg.
The extent of lesions was evaluated 3 days and 10 days after injection of lauric acid by the following criteria:
The lesion of each toe was graded and the total points of 5 toes were use as a lesion index, wherein 5 points were further added when the lesion reached the heel (i.e. the maximum lesion index was 25 points).
The shown number refers to the average value of the lesion index obtained from the evaluation.

[3] = Stability test in acidic or basic solution (half-life by liquid chromatography); type: physicochemical; conditions: time to 50% residual rate; for Half-life, pH 3.4 solution: phosphate buffer pH 3.4; for Half-life, pH 3.4 solution / Half-life, pH 7.3 solution: 1 mmoL/L, 37° C.; for Half-life, pH 7.3 solution: phosphate buffer pH 7.3
Method: The test compounds were dissolved in an acidic solution (phosphate buffer (pH3.4)) and in a basic solution (phosphate buffer (pH7.3)) at the concentration of 1 mmoL/L. Immediately after they were dissolved, each solution was analyzed with liquid chromatography using an acidic solution (phosphate buffer (pH3.4)) or basic solution (phosphate buffer (pH7.3)) as an eluent. The peak area of the test compounds was measured as the initial value. Furthermore, a time-course analysis with liquid chromatograpy was conducted to measure the peak area at each time point. The solution containing the test compound was kept in an incubator at 37° C. Based on the measured peak area of the test compounds, the percentage (%) of the peak area at each measurement time point was calculated, taking the peak area of the initial value as 100(%). The half-life (the time to show a 50% residual rate of the test compounds) of the test compounds was further calculated, and its stability was evaluated based on the half-life.

[4] = Bioabsorption: plasma concentration measurement in rats with oral administration; type: in vivo, rat; conditions: for concentration at 0.25 h: read-out: plasma concentration, Mean, time point 0.25 h; for concentration at 0.5 h: read-out: plasma concentration, Mean, time point 0.5 h; for concentration at 1 h: read-out: plasma concentration, Mean, time point 1.0 h; for concentration at 2 h: read-out: plasma concentration, Mean, time point 2.0 h; for concentration at 4 h: read-out: plasma concentration, Mean, time point 4.0 h; for concentration at 6 h: read-out: plasma concentration, Mean, time point 6.0 h; for concentration at 8 h: read-out: plasma concentration, Mean, time point 8.0 h; for AUC: read-out: AUC (area under the plasma concentration-time curve); for Cmax: read-out: Cmax (maximum plasma concentration); for Tmax: read-out: Tmax (time required to reach the maximum plasma concentration)
Method: We conducted a plasma concentration measurement in rats with oral administration to compare the absorption of the compound of the present invention (compound No. 451) with the comparative compound A and B.
6-week-old male SD rats (body weight is 200 to 230 g) were used for this test (3 rats per one group). The required amount of test compound was weighed and pulverized in an agate mortar. Then, a 0.5 (w/v) % methyl cellulose solution was added to prepare the suspension at the concentration of 10 mg/5 mL. 5 mL per kg body weight of the suspension was orally administered to rats once using a feeding tube for rats. About 0.3 mL of blood was sampled from the caudal vein using a heparinized glass tube at 0.25, 0.5, 1, 2, 4, 6, 8, 12 and 24 hours after the administration, and was centrifuged to obtain plasma.
30 μL of methanol and 300 µL of acetonitrile were added to 120 μL of the obtained plasma, and mixed with a Vortex mixer for 15 seconds. The sample was centrifuged to obtain 300 μL of the supernatant. The supernatant was dried, and 120 μL of an eluent was added thereto, and then mixed with a Vortex mixer for 15 seconds. After the mixture was centrifuged, the amount of each test compound remaining in the plasma was determined with liquid chromatography.
40 μL of the sample, as prepared above, was applied to liquid chromatography with the following conditions to conduct the measurement.
• Column: InertsiL (registered trademark) ODS-3 4.6 mmI.D.×250 mm; • Column temperature: 40° C.; • Eluent: Solution A (10 mmoL/L ammonium acetate:methanol=50:50), and Solution B (10 mmoL/L ammonium acetate:methanol=10:90); • Gradient condition (eluent composition): solution A→20 min.→solution B (5 min. elution)→1 min.→solution A (12 min. elution); • Flow rate: 1.0 mL; and • Detection wavelength: 314 nm.
• Column: InertsiL (registered trademark) ODS-3 4.6 mmI.D.×150 mm; • Column temperature: 40° C.; • Eluent: Solution A (aqua:methanol:acetic acid=90:10:0.5), and Solution B (aqua:methanol:acetic acid=10:90:0.5); • Gradient condition (eluent composition): solution A→20 min.→solution B (5 min. elution)→1 min.→solution A (12 min. elution); • Flow rate: 1.0 mL; and • Detection wavelength: 323 nm.
• Column: InertsiL (registered trademark) ODS-3 4.6 mmI.D.×150 mm; • Column temperature: 40° C.; • Eluent: Solution A (pH=2.2 phosphate buffer:acetonitrile=90:10), and Solution B (pH=2.2 phosphate buffer:acetonitrile=10:90); • Gradient condition (eluent composition): Solution A→10 min.→Solution B (2.5 min. elution)→0.5 min.→Solution A (9 min. elution); • Flow rate: 2.0 mL; and
Detection wavelength: 315nm.
Based on the peak area obtained in the liquid chromatography analysis with respect to 1 μg/mL of each test compound in plasma, the plasma concentration (μg/mL) at each time point was calculated.

[5] = test system: bleeding time in male SD rats; conditions: rat, in vivo, po
Method: as §1, §2, §3

[6] = 60 min between oral dosing and the tail cutting
[7] = 180 min between oral dosing and the tail cutting
[8] = 30 mg/kg multiple oral dosing (1 h prior to and 3 h after lauric-acid, then twice daily for 9 days), 10 days after lauric-acid injection
[9] = 30 mg/kg multiple oral dosing (1 h prior to and 3 h after lauric-acid, then twice daily), 3 days after lauric-acid injection
[10] = male, SD, rat, plasma, 10 mg/kg, 0.25 h
[11] = male, SD, rat, plasma, 10 mg/kg, 0.5 h
[12] = male, SD, rat, plasma, 10 mg/kg, 1.0 h
[13] = male, SD, rat, plasma, 10 mg/kg, 2.0 h
[14] = male, SD, rat, plasma, 10 mg/kg, 4.0 h
[15] = male, SD, rat, plasma, 10 mg/kg, 6.0 h
[16] = male, SD, rat, plasma, 10 mg/kg, 8.0 h
[17] = male, SD, rat, plasma, 10 mg/kg, from administration to 24 hours
[18] = male, SD, rat, plasma, 10 mg/kg
[19] = phosphate buffer pH 3.4, 37° C., read-out: Half-life, pH 3.4 solution (converted)
[20] = phosphate buffer pH 7.3, 37° C., read-out: Half-life, pH 7.3 solution (converted)

In the case of `CCCCCCOc1c(O)c2ccc(OCCO)cc2oc1=O` [Compound 445], the Bleeding time [1, 6] is reported as 9.1 min, the Bleeding time [1, 7] is reported as 8.3 min and the “Lesion Index after 10 days” value [2, 8] is reported as 7.5. For the same molecule, the “Lesion Index after 3 days” value [2, 9] was 2.7.

With `CCCCCCCCOc1c(O)c2ccc(OCCC(=O)O)cc2oc1=O` [Compound 525] the Bleeding time [1, 6] was 8.5 min, the Bleeding time [1, 7] was 8.1 min and the “Lesion Index after 10 days” value [2, 8] was 7.8. The “Lesion Index after 3 days” value [2, 9] was 2.9, the “Half-life, pH 3.4 solution” value [3] was >>100 hr and the “Half-life, pH 7.3 solution” value [3] was >>100 hr.

With `CCCCCCOc1c(O)c2ccc(O)cc2oc1=O` [Compound 125] the Bleeding time [1, 6] was 8.0 min, the Bleeding time [1, 7] was 8.4 min and the “Lesion Index after 10 days” value [2, 8] was 8.1. The “Lesion Index after 3 days” value [2, 9] was 2.6, the “Half-life, pH 3.4 solution” value [3] was >>100 hr and the “Half-life, pH 7.3 solution” value [3] was >>100 hr.

In the case of `O=c1oc2ccc(Cl)cc2c(O)c1O` [B], the concentration at 0.25 h [4, 10] is reported as 7400 ng/mL, the concentration at 0.5 h [4, 11] is reported as 4100 ng/mL and the concentration at 1 h [4, 12] is reported as 2000 ng/mL. The concentration at 2 h [4, 13] was 1400 ng/mL, the concentration at 4 h [4, 14] was 300 ng/mL and the concentration at 6 h [4, 15] was 100 ng/mL. For the same molecule, the concentration at 8 h [4, 16] was 100 ng/mL, the concentration at 12 h ([4]; male, SD, rat, plasma, 10 mg/kg, 12.0 h, read-out: plasma concentration, Mean, time point 12.0 h) was 0 ng/mL and the concentration at 24 h ([4]; male, SD, rat, plasma, 10 mg/kg, 24.0 h, read-out: plasma concentration, Mean, time point 24.0 h) was 0 ng/mL. For the same molecule, the AUC [4, 17] was 8300 ± 2600 ng·h/mL, the Cmax [4, 18] was 7400 ± 200 ng/mL and the Tmax [4, 18] was 0.25 h. For the same molecule, the half-life at 1 mmoL/L [3, 19] was 53 h and the half-life at 1 mmoL/L [3, 20] was 70 h.

With `Clc1ccccc1CN1CCc2sccc2C1` [ticlopidine hydrochloride, reference compound] the Bleeding time ([5]; 300 mg/kg, 180 min) was 36.1 min, the “Lesion Index after 3 days” value ([2]; positive control, 300 mg/kg orally 3 hours prior to lauric-acid injection, 3 days after injection) was 2.8 and the “Lesion Index after 10 days” value ([2]; positive control, 300 mg/kg orally 3 hours prior to lauric-acid injection, 10 days after injection) was 7.4.

In the case of `CC(=O)Oc1ccccc1C(=O)O` [aspirin], the Bleeding time ([5]; 100 mg/kg, 60 min) is reported as 40.2 min.

For `CC#CCC(C)[C@H](O)/C=C/[C@@H]1[C@H]2c3cccc(CCCC(=O)O)c3O[C@H]2C[C@H]1O` (mixture of isomers) [beraprost sodium], the Bleeding time ([5]; 1 mg/kg, 60 min) was 42.2 min.

In the case of `CCCCCCCCOc1c(O)c2ccc(OCCO)cc2oc1=O` [Compound 451], the “Cmax (maximum plasma concentration)” value [4] is reported as 25100 ± 13300 ng/mL, the “Tmax (time required to reach the maximum plasma concentration)” value [4] is reported as 0.3 ± 0.1 h and the “plasma concentration, Mean, time point 0.25 h” value ([4]; 0.25 h) is reported as 23600 ng/mL. The “plasma concentration, Mean, time point 0.5 h” value ([4]; 0.5 h) was 23600 ng/mL, the “plasma concentration, Mean, time point 1.0 h” value ([4]; 1.0 h) was 17900 ng/mL and the “plasma concentration, Mean, time point 2.0 h” value ([4]; 2.0 h) was 11800 ng/mL. For the same molecule, the “plasma concentration, Mean, time point 4.0 h” value ([4]; 4.0 h) was 9200 ng/mL, the “plasma concentration, Mean, time point 6.0 h” value ([4]; 6.0 h) was 6800 ng/mL and the “plasma concentration, Mean, time point 8.0 h” value ([4]; 8.0 h) was 3000 ng/mL. For the same molecule, the “plasma concentration, Mean, time point 12.0 h” value ([4]; 12.0 h) was 1200 ng/mL, the “plasma concentration, Mean, time point 24.0 h” value ([4]; 24.0 h) was 500 ng/mL and the “AUC (area under the plasma concentration-time curve)” value ([4]; from administration to 24 hours) was 99500 ± 64400 ng·h/mL. The Bleeding time [1, 6] was 7.8 min, the Bleeding time [1, 7] was 7.5 min and the “Lesion Index after 10 days” value [2, 8] was 7.2. The “Lesion Index after 3 days” value [2, 9] was 2.6, the “Half-life, pH 3.4 solution” value [3] was >>100 hr and the “Half-life, pH 7.3 solution” value [3] was >>100 hr.

For `O=c1oc2ccccc2c(O)c1O` [comparative compound A], the “plasma concentration, Mean, time point 12.0 h” value ([4]; 12.0 h) was “Not detected”, the “plasma concentration, Mean, time point 24.0 h” value ([4]; 24.0 h) was “Not detected” and the concentration at 0.25 h [4, 10] was 600 ng/mL. The concentration at 0.5 h [4, 11] was 300 ng/mL, the concentration at 1 h [4, 12] was 300 ng/mL and the concentration at 2 h [4, 13] was 300 ng/mL. For the same molecule, the concentration at 4 h [4, 14] was 300 ng/mL, the concentration at 6 h [4, 15] was 300 ng/mL and the concentration at 8 h [4, 16] was 200 ng/mL. The AUC [4, 17] was 2200 ± 100 ng·h/mL, the Cmax [4, 18] was 600 ± 100 ng/mL and the Tmax [4, 18] was 0.25 h. The half-life at 1 mmoL/L [3, 19] was 30 h and the half-life at 1 mmoL/L [3, 20] was 65 h.

Molecule `O=C1CCc2cc(OCCCCc3nnnn3C3CCCCC3)ccc2N1` [cilostazol] has a Bleeding time ([5]; 300 mg/kg, 60 min) of 50.1 min.

In the case of `CCOc1c(O)c2ccc(OC)cc2oc1=O` [Compound 144], the Bleeding time [1, 6] is reported as 8.9 min, the Bleeding time [1, 7] is reported as 8.2 min and the “Lesion Index after 10 days” value [2, 8] is reported as 7.2. The “Lesion Index after 3 days” value [2, 9] was 2.5.
